{
  "source": "patent US10947229B2",
  "about": "“Dimethyl amino azetidine amides as JAK inhibitors” (THERAVANCE BIOPHARMA R&D IP, LLC, priority 2018, dated 2021)",
  "key": {"[1]": {"test_system": "IL-27 induced CXCL9 secretion", "experiment": "Inhibition of IL-27 induced CXCL9 in human 3D airway cultures", "assay_type": "cell-based", "conditions": "192 h, 8 days, 4 donors", "description": "(§1) EpiAirway tissue cultures were obtained from Mattek (AIR-100). Cultures were derived from asthmatic donors. In a cell culture insert, human derived tracheal/bronchial epithelial cells were grown and differentiated on a porous membrane support, allowing an air-liquid interface with warmed culture medium below the cells and a gaseous test atmosphere above. Tissues were cultured in maintenance media ([…]) in a 37° C., 5% CO2 humidified incubator. Four donors were tested. On Day 0, tissue cultures were treated with test compounds in liquid interface at 10 μM, 1 μM and/or 0.1 μM. Compounds were diluted in dimethyl sulfoxide (DMSO, Sigma) to a final concentration of 0.1%. DMSO at 0.1% was used as a vehicle control. […] Tissue cultures were maintained for 8 days. Media was replaced every 2 days with fresh media containing compounds and IFNγ or IL-27. On Day 8, tissue cultures and supernatants were collected for analysis. Supernatant samples were assayed for CXCL10 (IP-10) and CXCL9 (MIG) using luminex analysis (EMD Millipore). Data is expressed as % Inhibition+/-standard deviation (±STDV). Percent inhibition was determined by compound inhibitory potency against IFNγ or IL-27 induced CXCL10 or CXCL9 secretion compared to vehicle treated cells. Data is the average from 4 donors."}, "[2]": {"test_system": "IFNγ induced CXCL10 secretion", "experiment": "Inhibition of IFNγ induced CXCL10 in human 3D airway cultures", "assay_type": "cell-based", "conditions": "192 h, 8 days, 4 donors", "description": "as §1"}, "Lung S9 metabolism": {"experiment": "Lung S9 metabolism", "assay_type": "in vitro ADME, human", "description": "The time 0, 15, 30, and 60 minute samples were analyzed for parent compound by high resolution LC-MS/MS. Lung S9 fractions from human (lot 1410245) were purchased from XenoTech LLC (Lenexa, Kans.). NADPH (Sigma Aldrich, N1630) and 3-phosphoadenosine 5-phosphosulfate (PAPS) (Sigma Aldrich, A1651) were purchased from Sigma Aldrich (St. Louis, Mo.). Acetonitrile and water were obtained from VWR (Radnor, Pa.) and were of HPLC grade or better. Raloxifene and formic acid was purchased from Sigma Aldrich (St. Louis, Mo.). Lung S9 incubations were performed in a water bath at 37° C. in a 96-well polypropylene plate. […] Louis, Mo.), 3 mM magnesium chloride (Sigma Aldrich, M1028) and in the presence of 100 μM PAPS (Sigma-Aldrich, St. […] Incubation volumes consisted of 400 μL and time points were taken at 0, 15, 30, and 60 minutes by the removal of a 70 μL aliquot and dilution into 140 μL acetonitrile (0% formic acid). All samples were centrifuged at 2250 g for 10 minutes at 5° C. Supernatant […] was taken from the centrifuged samples and diluted into 100 μL HPLC water containing internal standard. The samples were run on a Dionex Ultimate 3000 Auto sampler and analyzed using a Thermo Q-Exactive High Resolution Mass Spectrometer (Thermo, Waltham, Mass.) in Full Scan mode in conjunction with an Atlantis T3 column 3 μM-2.1×50 mm (Waters Inc., 186003717). Mobile Phase A consisted of Water+0.2% formic acid and Mobile Phase B consisted of acetonitrile +0.2% formic acid. Peak integration was accomplished using Gubbs GMSU software (Gubbs Inc., Alpharetta, Ga.). For each sample, peak area ratios were calculated by dividing the analyte peak area by the internal standard peak area. For each incubation, the peak area ratios of the analytes in each t0 was set to 100%, and the peak areas ratios from the 60 minute samples were converted to percentages remaining relative to the corresponding t0. Determination of sulfate metabolite formation was made qualitatively by observation of early-eluting peak in the parent ion channel which, based on historical internal data, corresponded to the O-sulfate metabolite of each parent compound."}, "[3]": {"test_system": "IL-27 induced CXCL10 secretion", "experiment": "Inhibition of IL-27 induced CXCL10 in human 3D airway cultures", "assay_type": "cell-based", "conditions": "192 h, 8 days, 4 donors", "description": "as §1"}, "[4]": {"test_system": "IL-12 stimulated STAT4 phosphorylation in CD3+ T cells", "experiment": "Cellular JAK potency assay: inhibition of IL-12-induced pSTAT4", "assay_type": "cell-based", "conditions": "T-cell; CD3+ T cells from human whole blood; read-out: pIC50, inhibition of IL-12-induced pSTAT4 (converted)", "description": "The potency of test compounds for inhibition of interleukin-12 (IL-12) stimulated STAT4 phosphorylation was measured in CD3-positive (CD3+) T cells derived from human whole blood (Stanford Blood Center) using flow cytometry. Because IL-12 signals through JAK, this assay provides a measure of JAK cellular potency. CD3+ T cells were identified using a phycoerythrin (PE) conjugated anti-CD3 antibody (clone UCHT1, BD Biosciences), and an Alexa Fluor 647 conjugated anti-pSTAT4 antibody (clone 38/p-Stat4, BD Biosciences) was used to detect STAT4 phosphorylation. Human peripheral blood mononuclear cells (PBMC) were isolated from human whole blood of healthy donors using a ficoll gradient. […] After incubation, cells were washed twice in FACS buffer before being analyzed using a MACSQuant flow cytometer (Miltenyi). To determine the inhibitory potency of the test compound, the median fluorescent intensity (MFI) of pSTAT4 was measured in CD3+ T cells. IC50 values were determined from analysis of the inhibition curves of MFI vs compound concentration. Data are expressed as pIC50 (negative decadic logarithm IC50) values."}},
  "data": [
    {"smiles": "CCc1cc(O)ccc1-c1ccc2c(-c3nc4c([nH]3)CN(C(C)C)[C@H](C(=O)N3CC(N(C)C)C3)C4)n[nH]c2c1", "note": "[Compound 1, (S)-(3-(dimethylamino)azetidin-1-yl)(2-(6-(2-ethyl-4-hydroxyphenyl)-1H-indazol-3-yl)-5-isopropyl-4,5,6,7-tetrahydro-3H-imidazo[4,5-c]pyridin-6-yl)methanone]", "values": [
      {"measurement": "inhibition at 0.1 µM", "setting": "[1]; 0.1 μM", "value": 52, "unit": "%"},
      {"measurement": "inhibition at 1 µM", "setting": "[1]; 1 μM", "value": 97, "unit": "%"},
      {"measurement": "inhibition at 10 µM", "setting": "[1]; 10 μM", "value": 100, "unit": "%"},
      {"measurement": "inhibition at 0.1 µM", "setting": "[2]; 0.1 μM", "value": 18, "unit": "%"},
      {"measurement": "inhibition at 1 µM", "setting": "[2]; 1 μM", "value": 76, "unit": "%"},
      {"measurement": "inhibition at 10 µM", "setting": "[2]; 10 μM", "value": 100, "unit": "%"},
      {"measurement": "Compound Remaining at 60 min (%)", "setting": "Lung S9 metabolism; human lung S9, 1 μM compound, 1 mg/mL S9 protein, 60 min", "value": 81, "unit": "%"},
      {"measurement": "Sulfate Appearance", "setting": "Lung S9 metabolism; human lung S9, qualitative O-sulfate metabolite peak", "value": "Yes"},
      {"measurement": "microsomal CLint at 1 µM", "setting": "Lung S9 metabolism; human lung S9 fraction, pH 7.4, human lung S9, 1 μM compound, 1 mg/mL S9 protein, NADPH and PAPS, read-out: Clearance", "value": 3.5, "unit": "µL/min/mg"},
      {"measurement": "inhibition at 0.1 µM", "setting": "[3]; 0.1 μM", "value": 25, "unit": "%"},
      {"measurement": "inhibition at 1 µM", "setting": "[3]; 1 μM", "value": 98, "unit": "%"},
      {"measurement": "inhibition at 10 µM", "setting": "[3]; 10 μM", "value": 100, "unit": "%"},
      {"measurement": "IC50", "setting": "[4]", "value": 1000, "unit": "nM"}
    ]}
  ]
}
